The assay has as its target T1, GST-Aurora A (Homo sapiens, UniProt O14965).
T1 construct: N-terminal GST fusion with full length Aurora A (1-403 amino acids); purchased Carna Biosciences 05-101
T1 sequence (O14965 1-403): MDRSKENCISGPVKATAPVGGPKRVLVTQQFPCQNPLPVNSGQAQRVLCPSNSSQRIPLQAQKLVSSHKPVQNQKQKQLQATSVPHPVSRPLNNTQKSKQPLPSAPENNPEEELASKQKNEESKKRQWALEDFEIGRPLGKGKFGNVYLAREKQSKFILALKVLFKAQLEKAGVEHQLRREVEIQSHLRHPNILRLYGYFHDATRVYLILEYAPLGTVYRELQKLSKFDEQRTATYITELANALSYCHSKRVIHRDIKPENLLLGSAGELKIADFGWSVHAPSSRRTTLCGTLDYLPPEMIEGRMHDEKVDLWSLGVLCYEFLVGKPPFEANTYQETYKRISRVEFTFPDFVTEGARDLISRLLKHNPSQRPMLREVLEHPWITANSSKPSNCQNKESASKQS
Nature of the assay: Aurora A IC50, Caliper LC3000 mobility shift assay. It is filed as biochemical. The settings on record: LC3000 method; 15 uM ATP (the KM value); read-out: Aurora Kinase A Activity (IC50). Here is the method:
The Aurora assays described here are performed on two Caliper Life Sciences systems: the LC3000 and the Desktop Profiler. These provide data on enzyme activity via measurement of the relative amounts of phosphorylated or unphosphorylated fluorescently labelled substrate peptide at the end of an enzymatic reaction. These different states of peptide are resolved by applying a potential difference across the sample. The presence of the charged phosphate group on the product (as opposed to the substrate) causes a different peptide mobility between the two peptides. This is visualized by excitation of the fluorescent label on the substrate and product peptides and represented as peaks within the analysis software.
In order to measure inhibitor activity of Aurora A inhibitors in the Caliper Life Sciences LC3000, a TTP Mosquito liquid handling instrument is used to place 0.25 ul of the appropriate concentration of inhibitor in 100% DMSO (for a dose response curve calculation) into each well of a 384-well plate. To this reaction components are added to a final volume of 25 ul: • 0.067 ng/ul GST-Aurora A (Carna Biosciences 05-101. N-terminal GST fusion with full length Aurora A (1-403 amino acids), accession number NP 940835.1). • 15 uM ATP (Fluke, 02055) • 1 mM DTT (Sigma, D0632) • 1 mM MgCl2 (Sigma, M1028) • 1 uM substrate peptide (sequence FITC-LRRASLG-(CONH2), synthesized by Tufts Peptide Synthesis service. • 100 mM HEPES pH 7.5 (Calbiochem, 391338) • 0.015% Brij-35 (Sigma, B4184)
The reaction is incubated for 90 min at 25 C, and then stopped by the addition of 70 ul of Stop buffer (100 mM HEPES pH 7.5, 0.015% Brij-35, 10 mM EDTA (Sigma, E7889)).
The plate is read on a Caliper LC3000 in an Off-Chip mobility shift assay format, using the following parameters for a 12-sipper chip: screening pressure—1.8 psi, upstream voltage—2700, downstream voltage—1000. These conditions cause unphosphorylated substrate and phosphorylated product peptide to resolve as separate peaks allowing direct measurement of percentage of conversion of substrate to product. The percent conversion can be plotted against concentration of inhibitor to produce a sigmoidal dose response curve, from which an 1050 can be calculated using XLFit for Microsoft Excel.
In the desired wells of a 384-well plate, Aurora A (0.067 ng/ul) was incubated with 15 uM ATP (the KM value), 1 mM DTT, 1 mM MgCl2, and 1 uM peptide substrate (sequence FITC-LRRASLG-(CONH2), FITC=fluorescein isothiocyanate) in 100 mM HEPES pH 7.5 and 0.015% Brij-35 buffer. The reaction was incubated for 90 min at 25 C, and then stopped by the addition of 45 ul of Stop buffer (100 mM HEPES ph 7.5, 0.015% Brij-35, 10 mM EDTA).
The plate was read in a Caliper LC 3000 in an Off-Chip mobility shift assay format, using the following parameters: screening pressure—1.8 psi, upstream voltage—2700, downstream voltage—1000. These conditions cause unphosphorylated substrate peptide to resolve as a peak before that of the phosphorylated peptide product.
In the following table “+” means >100 nM, “++” means 11-100 nM, and “+++” means <11 nM.
For orientation: IC50 means the midpoint of a concentration-inhibition curve. Take `CN(C)CCNC(=O)c1ccc2c(c1)c(=O)[nH]c1nccc(Nc3ccc(NC(=O)c4ccccc4)cc3)c12` [Compound 270, 1-(4-Benzamidophenylamino)-N-(2-(dimethylamino)ethyl)-6-oxo-5,6-dihydrobenzo[c][1,8]naphthyridine-8-carboxamide]: the IC50 lay within 11 to 100 nM.

Take `Cc1cc(Nc2ccnc3[nH]c(=O)c4ccccc4c23)n(CC(=O)Nc2ccccc2)n1` [Compound 308, 2-(3-Methyl-5-(6-oxo-5,6-dihydrobenzo[c][1,8]naphthyridin-1-ylamino)-1H-pyrazol-1-yl)-N-phenylacetamide]: the IC50 is > 100 nM.

On to `O=C(CN1CCC(Nc2ccnc3[nH]c(=O)c4ccccc4c23)CC1)NC1CCCCC1` [Compound 485, N-Cyclohexyl-2-(4-(6-oxo-5,6-dihydrobenzo[c][1,8]naphthyridin-1-ylamino)piperidin-1-yl)acetamide], for which the IC50 is > 100 nM.

Consider `O=c1[nH]c2nccc(Nc3c(Cl)ccc4c3OCO4)c2c2ccccc12` [Example 188, 1-(5-Chloro-benzo[1,3]dioxol-4-ylamino)-5H-benzo[c][1,8]naphthyridin-6-one], for which the IC50 is > 100 nM.

For the compound `O=C(Cn1cccn1)Nc1ccc(Nc2ccnc3[nH]c(=O)c4ccccc4c23)cc1` [Compound 503, N-(4-(6-Oxo-5,6-dihydrobenzo[c][1,8]naphthyridin-1-ylamino)phenyl)-2-(1H-pyrazol-1-yl)acetamide], the IC50 lay in the range of 11 to 100 nM.

As to `O=C(Nc1ccc(Nc2ccnc3[nH]c(=O)c4ccccc4c23)cc1)c1cccc(C(F)(F)F)c1F` [Compound 387, 2-Fluoro-N-[4-(6-oxo-5,6-dihydro-benzo[c][1,8]naphthyridin-1-ylamino)-phenyl]-3-trifluoromethyl-benzamide], the IC50 is < 11 nM.

Take `O=C(Nc1ccc(Nc2ccnc3[nH]c(=O)c4ccc(F)cc4c23)cc1)c1ccc(F)c(F)c1` [Compound 417, 3,4-Difluoro-N-[4-(9-fluoro-6-oxo-5,6-dihydro-benzo[c][1,8]naphthyridin-1-ylamino)-phenyl]-benzamide]: the IC50 was < 11 nM.

`CN1CCN(CCNC(=O)c2ccc3c(c2)c(=O)[nH]c2nccc(Nc4ccc(NC(=O)c5ccccc5)cc4)c23)CC1` [Compound 271, 1-(4-Benzamidophenylamino)-N-(2-(4-methylpiperazin-1-yl)ethyl)-6-oxo-5,6-dihydrobenzo[c][1,8]naphthyridine-8-carboxamide]: the IC50 is 11 to 100 nM.

In the case of `CN1CCN(Cc2cccc(C(=O)Nc3ccc(Nc4ccnc5[nH]c(=O)c6ccccc6c45)cc3)c2)CC1` [Compound 354, 3-((4-Methylpiperazin-1-yl)methyl)-N-(4-(6-oxo-5,6-dihydrobenzo[c][1,8]naphthyridin-1-ylamino)phenyl)benzamide], the IC50 is > 100 nM.

Take `O=C(Nc1ccc(Nc2ccnc3[nH]c(=O)c4cc(Cl)ccc4c23)cc1)c1ccc(F)cc1C(F)(F)F` [Compound 415, 4-Fluoro-N-[4-(8-chloro-6-oxo-5,6-dihydro-benzo[c][1,8]naphthyridin-1-ylamino)-phenyl]-2-trifluoromethyl-benzamide]: the IC50 was < 11 nM.

Take `O=C(Nc1ccc(Nc2ccnc3[nH]c(=O)c4ccc(F)cc4c23)cc1)c1cccc(F)c1F` [Compound 418, 2,3-Difluoro-N-[4-(9-fluoro-6-oxo-5,6-dihydro-benzo[c][1,8]naphthyridin-1-ylamino)-phenyl]-benzamide]: the IC50 is < 11 nM.

On to `O=C(Nc1ccc(Nc2ccnc3[nH]c(=O)c4ccccc4c23)cc1)C1(C(F)(F)F)CC1` [Compound 501, N-(4-(6-Oxo-5,6-dihydrobenzo[c][1,8]naphthyridin-1-ylamino)phenyl)-1-(trifluoromethyl)cyclopropanecarboxamide], for which the IC50 was in the range of 11 to 100 nM.

Consider `O=C(Nc1ccc(Nc2ccnc3[nH]c(=O)c4ccccc4c23)cc1)C1CCCCC1` [Compound 386, Cyclohexanecarboxylic acid-[4-(6-oxo-5,6-dihydro-benzo[c][1,8]naphthyridin-1-ylamino)-phenyl]-amide], for which the IC50 is < 11 nM.

Consider `Cc1ccc(C(=O)Nc2ccc(Nc3ccnc4[nH]c(=O)c5ccccc5c34)cc2)cc1` [Compound 394, 4-Methyl-N-[4-(6-oxo-5,6-dihydro-benzo[c][1,8]naphthyridin-1-ylamino)-phenyl]-benzamide], for which the IC50 is < 11 nM.

As for `CC(NC(=O)CN1CCC(Nc2ccnc3[nH]c(=O)c4ccccc4c23)CC1)c1ccccc1` (stereo not shown) [Compound 288, 2-(4-(6-Oxo-5,6-dihydrobenzo[c][1,8]naphthyridin-1-ylamino)piperidin-1-yl)-N-(1-phenylethyl)acetamide], the IC50 is > 100 nM.

As for `O=C(Nc1ccc(Nc2ccnc3[nH]c(=O)c4ccccc4c23)cc1)C(F)(F)F` [Compound 348, 2,2,2-Trifluoro-N-(4-(6-oxo-5,6-dihydrobenzo[c][1,8]naphthyridin-1-ylamino)phenyl)acetamide], the IC50 is > 100 nM.

In the case of `CN1CCN(C(=O)c2ccc3c(c2)c(=O)[nH]c2nccc(Nc4ccc(NC(=O)c5ccccc5)cc4)c23)CC1` [Compound 269, N-(4-(8-(4-Methylpiperazine-1-carbonyl)-6-oxo-5,6-dihydrobenzo[c][1,8]naphthyridin-1-ylamino)phenyl)benzamide], the IC50 lay within 11 to 100 nM.

For the compound `O=C(Cn1cc(Nc2ccnc3[nH]c(=O)c4ccc(F)cc4c23)cn1)Nc1ccc(C(F)(F)F)cc1` [Compound 422], the IC50 is 11 to 100 nM.

`CCOC(=O)c1cccc2c1c(=O)[nH]c1nccc(Nc3ccc(NC(=O)c4ccccc4)cc3)c12` [Compound 423, 1-[4-Benzoylamino-phenylamino)-6-oxo-5,6-dihydro-benzo[c][1,8]naphthyridin-7-carboxylic acid ethyl ester]: the IC50 was < 11 nM.

In the case of `O=C(Nc1ccc(Nc2ccnc3[nH]c(=O)c4ccccc4c23)cc1)c1ccc(F)cc1` [Compound 382, 4-Fluoro-N-[4-(6-oxo-5,6-dihydro-benzo[c][1,8]naphthyridin-1-ylamino)-phenyl]-benzamide], the IC50 is < 11 nM.

As for `O=C(CC1CC1)Nc1ccc(Nc2ccnc3[nH]c(=O)c4ccccc4c23)cc1` [Compound 352, 2-Cyclopropyl-N-(4-(6-oxo-5,6-dihydrobenzo[c][1,8]naphthyridin-1-ylamino)phenyl)acetamide], the IC50 fell in the range of 11 to 100 nM.

Turning to `O=c1[nH]c2ncccc2c2cc(NCc3ccc(Cl)cc3)ccc12` [Compound 452, 9-(4-Chlorobenzylamino)benzo[c][1,8]naphthyridin-6(5H)-one], the IC50 was > 100 nM.

For `O=C(NCCO)c1ccc2c(=O)[nH]c3nccc(Nc4ccc(NC(=O)c5ccccc5)cc4)c3c2c1` [Compound 289, 1-(4-Benzamidophenylamino)-N-(2-hydroxyethyl)-6-oxo-5,6-dihydrobenzo[c][1,8]naphthyridine-9-carboxamide], the IC50 was in the range of 11 to 100 nM.

Consider `Cc1cc(Nc2ccnc3[nH]c(=O)c4ccccc4c23)ccc1NC(=O)c1ccccc1` [Compound 322, N-(2-Methyl-4-(6-oxo-5,6-dihydrobenzo[c][1,8]naphthyridin-1-ylamino)phenyl)benzamide], for which the IC50 is > 100 nM.

For the compound `O=C(Nc1ccc(Nc2ccnc3[nH]c(=O)c4c(OCCN5CCOCC5)cccc4c23)cc1)c1ccccc1` [Compound 447], the IC50 lay within 11 to 100 nM.

The values are drawn from patent US8735584B2 (Merck Patent GmbH, priority 2008, dated 2014).
